According to ChEMBL document CHEMBL1201862, “PubChem BioAssay data set” (2004):
Several values for one entry are separate records, joined by “and”; a condition that tells them apart may be missing. Identical values can stand only once. One block for each molecule: values may come before it. Activity calls are given as the source filed them.

How the values were obtained:
[1] = target: Serine/threonine-protein phosphatase (Candida dubliniensis (strain CD36 / CBS 7987 / NCPF 3949 / NRRLY-17841) (Yeast), UniProt B9W6M3); test: Fluorescence Cell-Based Secondary Assay to Identify Inhibitors of Calcineurin. [Related pubchem assays (depositor defined):AID1979, AID2007]; format: functional
Jurkat = test: SAR Analysis of small molecule inhibitors of T-cell specific antigen receptor-induced NF-kB activation in a Jurkat cell line using a luminescence assay. [Related pubchem assays (depositor defined):AID435003, AID435012, AID465]; format: functional, cell-based; settings: Homo sapiens
[2] = target: Dual specificity protein kinase CLK2 (Homo sapiens, UniProt P49760); format: functional
[3] = target: RAC-gamma serine/threonine-protein kinase (Homo sapiens, UniProt Q9Y243); format: functional
[4] = target: Tyrosine-protein kinase SYK (Homo sapiens, UniProt P43405); format: functional
[5] = target: Mitogen-activated protein kinase 8 (Homo sapiens, UniProt P45983); format: functional;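 also: value comes from one member of a kinome-wide kinase profiling panel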
[6] = target: Casein kinase II subunit alpha (Homo sapiens, UniProt P68400); format: functional
[7] = target: Tyrosine-protein kinase ITK/TSK (Homo sapiens, UniProt Q08881); format: functional;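 also: affinity for ITK measured as one member of a broad kinase panel profiling binding across the kinome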
[8] = target: Protein-tyrosine kinase 2-beta (Homo sapiens, UniProt Q14289); format: functional
[9] = target: Mitogen-activated protein kinase kinase kinase kinase 2 (Homo sapiens, UniProt Q12851); format: functional;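 also: measured as one member of a kinome-wide kinase panel, with MAP4K2 as the panel entry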
[10] = target: MAP kinase-activated protein kinase 3 (Homo sapiens, UniProt Q16644); format: functional;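 also: value comes from a kinome-wide profiling panel in which MAPKAPK3 is one of the panel members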
[11] = target: Tyrosine-protein kinase ABL1 (Homo sapiens, UniProt P00519); format: functional
Misshapen-like kinase 1 = Misshapen-like kinase 1 (Homo sapiens, UniProt Q8N4C8); format: functional;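 also: kinome panel screen with MINK as the panel member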
[12] = target: Protein kinase C iota type (Homo sapiens, UniProt P41743); format: functional;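 also: measured within a kinome-wide kinase panel, PRKCI as panel member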
[13] = target: Calcium/calmodulin-dependent protein kinase type 1 (Homo sapiens, UniProt Q14012); format: functional
[14] = target: Mitogen-activated protein kinase kinase kinase kinase 4 (Homo sapiens, UniProt O95819); format: functional
[15] = target: Serine/threonine-protein kinase NLK (Homo sapiens, UniProt Q9UBE8); test: Navigating the Kinome. Panel member name: NLK; format: functional
Caspase-3 = target: T1, Caspase-3 (Homo sapiens, UniProt P42574); format: functional;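 also: Dose-response selectivity test against caspase-3 for candidate inhibitors of sentrin-specific proteases (SENPs)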
T1 sequence (P42574 whole entry): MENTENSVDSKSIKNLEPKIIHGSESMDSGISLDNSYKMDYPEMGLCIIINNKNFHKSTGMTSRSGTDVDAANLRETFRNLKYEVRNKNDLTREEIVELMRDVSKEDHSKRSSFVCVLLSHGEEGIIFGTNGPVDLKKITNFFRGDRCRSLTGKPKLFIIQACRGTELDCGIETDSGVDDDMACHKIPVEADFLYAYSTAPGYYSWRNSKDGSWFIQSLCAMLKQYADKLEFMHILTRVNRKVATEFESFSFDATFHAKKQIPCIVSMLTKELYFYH

[16] = target: T2, Sentrin-specific protease 8 (Homo sapiens, UniProt Q96LD8); format: functional;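 also: luminescence read-out of SENP8 inhibition, dose-response confirmation following an ultra-high-throughput screen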
T2 sequence (Q96LD8 whole entry): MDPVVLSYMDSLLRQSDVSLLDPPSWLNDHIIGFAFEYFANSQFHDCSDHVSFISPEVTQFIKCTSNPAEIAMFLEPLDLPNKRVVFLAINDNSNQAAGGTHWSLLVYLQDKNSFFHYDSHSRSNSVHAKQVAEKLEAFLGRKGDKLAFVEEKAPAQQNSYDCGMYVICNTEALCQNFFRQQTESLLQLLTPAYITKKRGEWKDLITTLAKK

Procathepsin L = Procathepsin L (Homo sapiens, UniProt P07711)
[17] = target: T3, Mannose-6-phosphate isomerase (Homo sapiens, UniProt P34949); test: PMI enzyme inhibitors, confirmation, biochemical, fluorescence intensity (AID 1535)
T3 sequence (P34949 whole entry): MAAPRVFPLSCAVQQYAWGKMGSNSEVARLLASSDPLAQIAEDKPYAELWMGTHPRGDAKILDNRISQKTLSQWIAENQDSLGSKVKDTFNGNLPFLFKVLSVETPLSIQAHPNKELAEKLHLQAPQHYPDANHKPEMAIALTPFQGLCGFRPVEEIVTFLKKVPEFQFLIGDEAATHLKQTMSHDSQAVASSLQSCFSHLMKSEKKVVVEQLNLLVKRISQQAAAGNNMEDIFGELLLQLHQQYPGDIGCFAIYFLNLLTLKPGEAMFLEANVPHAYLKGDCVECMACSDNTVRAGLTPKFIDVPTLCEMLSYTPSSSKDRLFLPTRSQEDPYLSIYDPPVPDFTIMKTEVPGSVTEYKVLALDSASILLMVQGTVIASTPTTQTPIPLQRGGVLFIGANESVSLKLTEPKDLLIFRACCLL

Hexokinase = target: T4, Hexokinase (Trypanosoma brucei, UniProt Q38C41); test: Confirmation assay for inhibitors of Trypanosoma brucei hexokinase 1-Analogue-first series. [Related pubchem assays (depositor defined):AID1430, AID1632, AID2516, AID2560, AID2579, AID2600, AID449725, AID492951]; format: functional
T4 sequence (Q38C41 whole entry): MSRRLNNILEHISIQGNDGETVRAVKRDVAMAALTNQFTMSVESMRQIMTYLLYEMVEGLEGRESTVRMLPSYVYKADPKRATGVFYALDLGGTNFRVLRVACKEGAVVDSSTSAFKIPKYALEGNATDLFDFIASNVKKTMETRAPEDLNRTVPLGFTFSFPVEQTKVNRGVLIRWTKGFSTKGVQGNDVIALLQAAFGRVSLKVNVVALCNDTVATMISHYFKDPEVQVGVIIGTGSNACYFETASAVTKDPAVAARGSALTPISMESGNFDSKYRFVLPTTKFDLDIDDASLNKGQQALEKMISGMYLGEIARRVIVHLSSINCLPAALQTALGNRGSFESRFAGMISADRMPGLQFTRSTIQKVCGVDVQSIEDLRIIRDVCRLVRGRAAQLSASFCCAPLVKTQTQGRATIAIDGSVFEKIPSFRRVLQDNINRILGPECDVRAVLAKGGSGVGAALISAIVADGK

[18] = target: Phosphoethanolamine/phosphocholine phosphatase (Homo sapiens, UniProt Q8TCT1); test: SAR assay for compounds that inhibit PHOSPHO1. [Related pubchem assays (depositor defined):AID1545, AID1565, AID1574]
Chain of Phosphoethanolamine/phosphocholine phosphatase (Q8TCT1 whole entry): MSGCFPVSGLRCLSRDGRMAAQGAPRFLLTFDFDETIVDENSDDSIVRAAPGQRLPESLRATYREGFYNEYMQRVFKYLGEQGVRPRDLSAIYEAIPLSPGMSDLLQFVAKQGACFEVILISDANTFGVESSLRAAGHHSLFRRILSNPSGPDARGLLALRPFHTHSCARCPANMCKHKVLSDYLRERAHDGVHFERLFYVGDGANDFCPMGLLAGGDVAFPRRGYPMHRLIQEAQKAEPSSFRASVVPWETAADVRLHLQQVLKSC

Chain of Tyrosine-protein kinase ABL1 (P00519 whole entry): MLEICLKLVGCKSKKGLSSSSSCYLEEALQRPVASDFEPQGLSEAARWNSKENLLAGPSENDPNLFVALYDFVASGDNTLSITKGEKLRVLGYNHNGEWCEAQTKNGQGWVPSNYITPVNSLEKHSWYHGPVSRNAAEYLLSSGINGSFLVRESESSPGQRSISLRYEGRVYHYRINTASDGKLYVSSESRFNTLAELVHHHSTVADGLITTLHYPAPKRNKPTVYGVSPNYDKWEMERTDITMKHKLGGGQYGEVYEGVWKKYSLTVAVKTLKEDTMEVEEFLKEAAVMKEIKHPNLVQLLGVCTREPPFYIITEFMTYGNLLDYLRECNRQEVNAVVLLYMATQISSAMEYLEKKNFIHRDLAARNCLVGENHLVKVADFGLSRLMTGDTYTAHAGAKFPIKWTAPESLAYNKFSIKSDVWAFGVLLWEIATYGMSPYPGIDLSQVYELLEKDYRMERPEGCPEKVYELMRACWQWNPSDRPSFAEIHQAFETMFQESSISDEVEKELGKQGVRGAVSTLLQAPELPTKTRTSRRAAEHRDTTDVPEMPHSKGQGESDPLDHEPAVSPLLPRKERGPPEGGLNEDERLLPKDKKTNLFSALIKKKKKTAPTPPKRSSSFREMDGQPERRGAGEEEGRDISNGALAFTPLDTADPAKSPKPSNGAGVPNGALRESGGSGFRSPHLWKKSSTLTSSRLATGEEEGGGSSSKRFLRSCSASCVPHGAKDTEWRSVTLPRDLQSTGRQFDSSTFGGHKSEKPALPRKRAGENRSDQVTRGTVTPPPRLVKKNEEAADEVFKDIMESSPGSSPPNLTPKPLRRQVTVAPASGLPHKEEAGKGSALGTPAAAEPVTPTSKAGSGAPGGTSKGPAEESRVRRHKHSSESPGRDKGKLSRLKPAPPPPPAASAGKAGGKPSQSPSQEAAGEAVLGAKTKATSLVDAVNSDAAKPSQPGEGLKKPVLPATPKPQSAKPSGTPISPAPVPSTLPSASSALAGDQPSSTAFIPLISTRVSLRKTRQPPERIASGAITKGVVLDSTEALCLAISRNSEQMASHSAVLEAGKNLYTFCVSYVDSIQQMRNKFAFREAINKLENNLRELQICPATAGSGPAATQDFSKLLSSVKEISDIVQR
Chain of Dual specificity protein kinase CLK2 (P49760 whole entry): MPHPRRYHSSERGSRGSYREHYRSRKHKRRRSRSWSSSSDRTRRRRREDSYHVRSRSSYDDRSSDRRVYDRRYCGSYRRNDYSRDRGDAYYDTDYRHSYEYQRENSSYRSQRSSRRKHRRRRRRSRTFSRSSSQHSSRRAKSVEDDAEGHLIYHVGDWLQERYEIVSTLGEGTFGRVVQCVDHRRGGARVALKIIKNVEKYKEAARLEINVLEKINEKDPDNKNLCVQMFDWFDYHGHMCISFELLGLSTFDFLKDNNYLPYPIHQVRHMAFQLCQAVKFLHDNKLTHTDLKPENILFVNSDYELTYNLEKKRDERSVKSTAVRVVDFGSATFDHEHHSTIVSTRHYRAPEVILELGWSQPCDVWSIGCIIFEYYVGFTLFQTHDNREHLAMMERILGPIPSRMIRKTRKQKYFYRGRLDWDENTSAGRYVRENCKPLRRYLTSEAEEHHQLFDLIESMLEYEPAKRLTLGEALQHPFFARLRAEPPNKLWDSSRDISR
Chain of Protein-tyrosine kinase 2-beta (Q14289 whole entry): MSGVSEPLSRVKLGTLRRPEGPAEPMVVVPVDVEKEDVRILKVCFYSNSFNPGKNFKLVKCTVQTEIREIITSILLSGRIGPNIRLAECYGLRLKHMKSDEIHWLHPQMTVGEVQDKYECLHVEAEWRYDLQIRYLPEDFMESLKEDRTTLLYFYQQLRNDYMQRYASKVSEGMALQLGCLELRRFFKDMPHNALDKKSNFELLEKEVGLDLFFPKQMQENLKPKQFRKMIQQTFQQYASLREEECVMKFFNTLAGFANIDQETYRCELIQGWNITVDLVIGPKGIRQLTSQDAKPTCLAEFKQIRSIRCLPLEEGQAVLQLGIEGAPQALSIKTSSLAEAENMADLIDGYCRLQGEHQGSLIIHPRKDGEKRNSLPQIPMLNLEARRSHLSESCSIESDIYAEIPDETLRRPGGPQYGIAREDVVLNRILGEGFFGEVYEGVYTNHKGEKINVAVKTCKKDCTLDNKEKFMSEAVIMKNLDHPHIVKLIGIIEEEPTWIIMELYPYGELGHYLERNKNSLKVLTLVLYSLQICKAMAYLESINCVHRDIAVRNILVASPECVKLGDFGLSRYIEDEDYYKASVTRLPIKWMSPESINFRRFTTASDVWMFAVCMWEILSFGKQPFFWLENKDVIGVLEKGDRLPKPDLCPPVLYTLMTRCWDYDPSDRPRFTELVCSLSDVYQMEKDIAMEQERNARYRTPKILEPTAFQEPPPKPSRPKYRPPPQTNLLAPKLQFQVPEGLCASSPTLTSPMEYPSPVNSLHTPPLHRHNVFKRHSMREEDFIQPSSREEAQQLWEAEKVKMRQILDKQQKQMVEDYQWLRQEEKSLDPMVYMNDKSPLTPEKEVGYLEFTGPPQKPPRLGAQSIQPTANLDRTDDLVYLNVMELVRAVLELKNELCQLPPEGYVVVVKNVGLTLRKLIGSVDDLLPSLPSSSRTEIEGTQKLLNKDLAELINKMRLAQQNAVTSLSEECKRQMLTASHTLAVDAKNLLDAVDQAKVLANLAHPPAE
Chain of Procathepsin L (P07711 whole entry): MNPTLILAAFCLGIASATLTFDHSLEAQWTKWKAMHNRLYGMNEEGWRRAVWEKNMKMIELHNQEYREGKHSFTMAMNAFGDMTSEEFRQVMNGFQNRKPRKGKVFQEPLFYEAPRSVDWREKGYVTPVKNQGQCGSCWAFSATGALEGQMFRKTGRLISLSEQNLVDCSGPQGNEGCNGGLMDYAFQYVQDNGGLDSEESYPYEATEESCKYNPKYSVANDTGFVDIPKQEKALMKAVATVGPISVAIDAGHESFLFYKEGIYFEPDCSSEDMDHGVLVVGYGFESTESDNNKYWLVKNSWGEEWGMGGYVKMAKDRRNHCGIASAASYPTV
Chain of Misshapen-like kinase 1 (Q8N4C8 whole entry): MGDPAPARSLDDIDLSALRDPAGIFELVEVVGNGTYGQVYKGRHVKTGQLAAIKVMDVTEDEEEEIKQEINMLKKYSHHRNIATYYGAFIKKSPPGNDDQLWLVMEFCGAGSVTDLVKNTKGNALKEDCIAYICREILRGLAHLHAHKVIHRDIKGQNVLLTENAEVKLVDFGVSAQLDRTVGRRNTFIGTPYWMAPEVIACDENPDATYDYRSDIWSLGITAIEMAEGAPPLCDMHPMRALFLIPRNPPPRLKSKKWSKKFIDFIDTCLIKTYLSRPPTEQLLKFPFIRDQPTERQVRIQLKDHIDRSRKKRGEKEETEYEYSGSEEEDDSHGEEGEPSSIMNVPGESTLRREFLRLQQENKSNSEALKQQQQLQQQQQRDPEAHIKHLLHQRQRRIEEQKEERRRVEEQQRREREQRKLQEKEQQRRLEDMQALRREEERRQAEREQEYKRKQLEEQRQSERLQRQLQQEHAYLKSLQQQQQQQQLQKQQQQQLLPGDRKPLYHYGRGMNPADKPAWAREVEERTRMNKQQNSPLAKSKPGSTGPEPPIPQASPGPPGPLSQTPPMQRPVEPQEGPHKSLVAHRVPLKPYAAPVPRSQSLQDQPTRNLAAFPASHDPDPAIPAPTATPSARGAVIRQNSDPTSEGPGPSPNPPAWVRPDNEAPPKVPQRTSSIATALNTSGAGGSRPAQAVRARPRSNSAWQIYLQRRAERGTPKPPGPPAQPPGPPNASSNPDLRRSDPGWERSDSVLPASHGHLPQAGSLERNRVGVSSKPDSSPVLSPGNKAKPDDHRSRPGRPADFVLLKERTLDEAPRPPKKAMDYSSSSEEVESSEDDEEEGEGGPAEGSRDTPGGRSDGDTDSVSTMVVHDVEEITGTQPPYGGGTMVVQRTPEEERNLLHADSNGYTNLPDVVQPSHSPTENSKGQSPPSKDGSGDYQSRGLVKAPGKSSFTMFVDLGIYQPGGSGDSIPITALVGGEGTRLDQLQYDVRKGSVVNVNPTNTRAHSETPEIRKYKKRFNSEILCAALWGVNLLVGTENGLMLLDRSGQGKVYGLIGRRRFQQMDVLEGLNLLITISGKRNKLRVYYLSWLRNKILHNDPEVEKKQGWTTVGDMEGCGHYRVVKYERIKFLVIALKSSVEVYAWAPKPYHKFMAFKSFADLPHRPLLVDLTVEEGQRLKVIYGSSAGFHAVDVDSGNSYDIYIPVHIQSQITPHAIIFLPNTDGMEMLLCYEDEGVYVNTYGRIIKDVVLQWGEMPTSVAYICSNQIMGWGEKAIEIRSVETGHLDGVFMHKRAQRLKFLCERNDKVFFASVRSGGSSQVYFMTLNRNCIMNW
Chain of RAC-gamma serine/threonine-protein kinase (Q9Y243 whole entry): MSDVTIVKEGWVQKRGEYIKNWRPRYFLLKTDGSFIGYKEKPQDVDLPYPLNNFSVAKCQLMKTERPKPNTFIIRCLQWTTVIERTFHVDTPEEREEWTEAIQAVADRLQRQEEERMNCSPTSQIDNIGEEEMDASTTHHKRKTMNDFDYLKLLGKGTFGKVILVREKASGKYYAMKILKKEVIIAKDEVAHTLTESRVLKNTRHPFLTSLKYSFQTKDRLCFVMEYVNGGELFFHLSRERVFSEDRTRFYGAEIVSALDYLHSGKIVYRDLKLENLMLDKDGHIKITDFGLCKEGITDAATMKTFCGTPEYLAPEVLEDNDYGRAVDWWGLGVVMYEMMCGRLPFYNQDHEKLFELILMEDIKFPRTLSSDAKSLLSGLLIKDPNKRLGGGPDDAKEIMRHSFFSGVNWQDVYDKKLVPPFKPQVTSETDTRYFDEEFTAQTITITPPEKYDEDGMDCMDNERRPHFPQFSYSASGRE

SMILES: CCCC(=O)NC(c1ccc(Cl)cc1)c1ccc2cccnc2c1O (stereo not drawn)
EC50 [1]: > 285 µM (inactive) | IC50 (Jurkat): 4.13 µM (active)

Ki [2]: 1 µM (active) | Ki [3]: > 10 µM (inactive) | Ki [4]: 1.58 µM (active) | Ki [5]: > 3.16 µM (inactive) | Ki [6]: > 6.31 µM (inactive) | Ki [7]: > 1.58 µM (inactive) | Ki [8]: > 1.58 µM (inactive) | Ki [9]: 2 µM (active) | Ki [10]: > 10 µM (inactive) | Ki [11]: > 0.631 µM (inactive) | Ki (Misshapen-like kinase 1): > 7.94 µM (inactive) | Ki [12]: > 5.01 µM (inactive) | Ki [13]: > 6.31 µM (inactive) | Ki [14]: 2.51 µM (active) | Ki [15]: 0.02 µM (active)
SMILES: Cc1cccc(NC(=O)Nc2ccc3c(c2)CCc2sc4ncnc(N)c4c2-3)c1

SMILES: CC(=O)N(/N=C1\Sc2ccccc2C1=O)c1ccccc1C
IC50 (Caspase-3): 42.2 µM (active) | IC50 [16]: 3.46 µM (active)

SMILES: Cc1ccc(-n2sc3ccccc3c2=O)cc1
IC50 (Procathepsin L): > 59.6 µM (not active) | IC50 [17]: 7.04 µM (active) and 4.06 µM (active) | IC50 (Hexokinase): 2.64 µM (active) | IC50 [18]: 2.28 µM (inactive) and 1.46 µM (inactive)
